According to PMC6572184, “New γ-Halo-δ-lactones and δ-Hydroxy-γ-lactones with Strong Cytotoxic Activity” (Molecules, 2019):

Tests used:
Type in all cases: cell-based
[1] = test system: Escherichia coli ATCC 8739; experiment: Bactericidal activity, CFU counting method; details: E. coli ATCC 8739; 18 h at 37 °C; Control 9.47, Control with DMSO 9.30
Procedure: (§1) The bacterial cultures: Escherichia coli ATCC 8739 and Staphylococcus aureus ATCC 65389 were grown on Luria–Bertani Agar for 18 h at 37 ^∘ C. The strain suspension was prepared in 0.85% saline, with an optical density equivalent to a 0.5 McFarland standard. Next, the following mixtures were prepared: 180 μ L of sterile enriched broth (BTL), 10 μ L of the bacterial suspension and 10 μ L of the tested compound (range 0.1–50 μ g/mL) solubilized in DMSO. As a negative control, only DMSO was added. As a sterility control, 180 μ L of BTL and 20 μ L saline were used. The microtiter plate was incubated at 37 ^∘ C for 18 h. The colony forming unit (CFU) method was used to evaluate the microbial population. The experiment was repeated three times. Gentamicin was used as the reference antibiotic.

[2] = test system: Staphylococcus aureus ATCC 65389; experiment: Bactericidal activity, CFU counting method; details: S. aureus ATCC 65389; for Number of CFU/mL (× 10^7): 18 h at 37 °C, Control 21.36, Control with DMSO 20.85; for less CFU/mL (reduction of the number of CFU/mL): versus control
Procedure: as §1

[3] = test system: AGS cell lines (human gastric adenocarcinoma); experiment: MTT reduction cytotoxicity assay; details: for mean percentage of viable cells ± SD: 24 h
Procedure: (§2) Cell cultures: The L929 mouse fibroblasts and human gastric adenocarcinoma cell line AGS were used for in vitro cytotoxicity assays. The cells were maintained under standard conditions (37 ^∘ C, 5% CO 2 ) in 25 cm^2 tissue culture flasks in RPMI-1640 medium supplemented with 10% fetal bovine serum (FBS) and antibiotics: 100 U/mL penicillin and 100 μ g/mL streptomycin. The cell suspension containing 10 ^8 cells in 1 mL, was obtained by treatment of confluent monolayers with 0.25% trypsin solution, washed and subcultured. Cell cultures were supplemented with medium to maintain them in log phase growth. The viability of the cells was assessed by exclusion of trypan blue dye.
(§3) Measurements of cellular metabolic activity and global growth inhibition: L929 cells were seeded into 96-well plates (2 × 10 ^5 cells/well) for 24 h, at 37 ^∘ C, 5% CO2 . Tested compounds 5a–c, 6a–c, 7a–c, 8a–c, 9b,c, 10b,c, 12a and 13a were diluted serially in RPMI-1640 medium in concentrations of 50, 20, 10, 5, 0.5 and 0.1 μ g/mL, added to the cells (100 μ L/well), and incubated under standard conditions for 24 h. The potential harmful effect of lactones on L929 and AGS cells was assessed by the ability of the cells to reduce 3-(4,5-dimethylthiazol-2-yl)-2,5-diphenyltetrazolium bromide (MTT) to formazan. The solution of MTT (5 mg/mL in PBS), was added to each well and the plates were incubated for 4h at 37 ^∘ C. Formazan crystals were dissolved with acidic isopropanol (0.1 M HCl in absolute isopropanol) and the plates were read in a plate reader (Victor 2) at 570 nm. The percentage of MTT reduction was calculated by comparing the absorbance of treated cells to that of untreated control cells. Results are expressed as the mean percentage of viable cells ± standard deviation (SD) of four independent experiments. Statistical significance was accepted at a p-value < 0.05.

[4] = test system: L929 cell lines (mouse fibroblasts); experiment: MTT reduction cytotoxicity assay; details: 24 h
Procedure: as §2, §3

Structure (SMILES): CC1CC(=O)OC(c2ccc(F)cc2)C1Br (mixture of isomers) [8c, Cis,trans-5-bromo-6-(4-fluorophenyl)-tetrahydro-4-methylpyran-2-one]
- Number of CFU/mL (× 10^7) [1]: 8.87 × 10^7 CFU/mL
- Number of CFU/mL (× 10^7) [2]: 3.60 × 10^7 CFU/mL
- less CFU/mL (reduction of the number of CFU/mL) [2]: 78–83%
- IC50 [3]: 2500 nM
- mean percentage of viable cells ± SD ([3]; 0.1 μg/mL): 69 ± 0.15%
- mean percentage of viable cells ± SD ([3]; 0.5 μg/mL): 58 ± 0.10%
- mean percentage of viable cells ± SD ([3]; 5 μg/mL): 43 ± 0.10%
- mean percentage of viable cells ± SD ([3]; 10 μg/mL): 18 ± 0.07%
- mean percentage of viable cells ± SD ([3]; 20 μg/mL): 11 ± 0.03%
- mean percentage of viable cells ± SD ([3]; 50 μg/mL): 10 ± 0.09%
- mean percentage of viable cells ± SD ([4]; 0.1 μg/mL): 25 ± 0.03%
- mean percentage of viable cells ± SD ([4]; 0.5 μg/mL): 20 ± 0.08%
- mean percentage of viable cells ± SD ([4]; 5 μg/mL): 15 ± 0.03%
- mean percentage of viable cells ± SD ([4]; 10 μg/mL): 11 ± 0.03%
- mean percentage of viable cells ± SD ([4]; 20 μg/mL): 5 ± 0.02%
- mean percentage of viable cells ± SD ([4]; 50 μg/mL): 1 ± 0.05%

Structure (SMILES): CC1CC(=O)OC(c2cccc3ccccc23)C1Cl (mixture of isomers) [6a, Cis,trans-5-chloro-tetrahydro-4-methyl-6-(naphthalen-1-yl)pyran-2-one]
- Number of CFU/mL (× 10^7) [1]: 7.58 × 10^7 CFU/mL
- Number of CFU/mL (× 10^7) [2]: 5.20 × 10^7 CFU/mL
- IC50 [3]: 1900 nM
- mean percentage of viable cells ± SD ([3]; 0.1 μg/mL): 35 ± 0.06%
- mean percentage of viable cells ± SD ([3]; 0.5 μg/mL): 28 ± 0.07%
- mean percentage of viable cells ± SD ([3]; 5 μg/mL): 23 ± 0.09%
- mean percentage of viable cells ± SD ([3]; 10 μg/mL): 19 ± 0.01%
- mean percentage of viable cells ± SD ([3]; 20 μg/mL): 8 ± 0.09%
- mean percentage of viable cells ± SD ([3]; 50 μg/mL): 8 ± 0.05%
- mean percentage of viable cells ± SD ([4]; 0.1 μg/mL): 15 ± 0.03%
- mean percentage of viable cells ± SD ([4]; 0.5 μg/mL): 11 ± 0.08%
- mean percentage of viable cells ± SD ([4]; 5 μg/mL): 9 ± 0.15%
- mean percentage of viable cells ± SD ([4]; 10 μg/mL): 7 ± 0.07%
- mean percentage of viable cells ± SD ([4]; 20 μg/mL): 6 ± 0.03%
- mean percentage of viable cells ± SD ([4]; 50 μg/mL): 2 ± 0.09%

Structure (SMILES): CC1CC(=O)OC(c2ccccc2)C1Cl (mixture of isomers) [6b, Cis,trans-5-chloro-tetrahydro-4-methyl-6-phenylpyran-2-one]
- Number of CFU/mL (× 10^7) [1]: 6.32 × 10^7 CFU/mL
- Number of CFU/mL (× 10^7) [2]: 3.58 × 10^7 CFU/mL
- less CFU/mL (reduction of the number of CFU/mL) [2]: 78–83%
- IC50 [3]: 4400 nM
- mean percentage of viable cells ± SD ([3]; 0.1 μg/mL): 42 ± 0.02%
- mean percentage of viable cells ± SD ([3]; 0.5 μg/mL): 35 ± 0.02%
- mean percentage of viable cells ± SD ([3]; 5 μg/mL): 28 ± 0.03%
- mean percentage of viable cells ± SD ([3]; 10 μg/mL): 21 ± 0.02%
- mean percentage of viable cells ± SD ([3]; 20 μg/mL): 14 ± 0.07%
- mean percentage of viable cells ± SD ([3]; 50 μg/mL): 8 ± 0.06%
- mean percentage of viable cells ± SD ([4]; 0.1 μg/mL): 32 ± 0.07%
- mean percentage of viable cells ± SD ([4]; 0.5 μg/mL): 27 ± 0.12%
- mean percentage of viable cells ± SD ([4]; 5 μg/mL): 25 ± 0.02%
- mean percentage of viable cells ± SD ([4]; 10 μg/mL): 16 ± 0.03%
- mean percentage of viable cells ± SD ([4]; 20 μg/mL): 4 ± 0.15%
- mean percentage of viable cells ± SD ([4]; 50 μg/mL): 2 ± 0.05%

Structure (SMILES): CC1CC(=O)OC(c2cccc3ccccc23)C1Br (mixture of isomers) [8a, Cis,trans-5-bromo-tetrahydro-4-methyl-6-(naphthalen-1-yl)pyran-2-one]
- Number of CFU/mL (× 10^7) [1]: 7.14 × 10^7 CFU/mL
- Number of CFU/mL (× 10^7) [2]: 9.29 × 10^7 CFU/mL
- less CFU/mL (reduction of the number of CFU/mL) [2]: 83%
- IC50 [3]: 1600 nM
- mean percentage of viable cells ± SD ([3]; 0.1 μg/mL): 61 ± 0.10%
- mean percentage of viable cells ± SD ([3]; 0.5 μg/mL): 47 ± 0.06%
- mean percentage of viable cells ± SD ([3]; 5 μg/mL): 39 ± 0.09%
- mean percentage of viable cells ± SD ([3]; 10 μg/mL): 25 ± 0.05%
- mean percentage of viable cells ± SD ([3]; 20 μg/mL): 17 ± 0.07%
- mean percentage of viable cells ± SD ([3]; 50 μg/mL): 9 ± 0.09%
- mean percentage of viable cells ± SD ([4]; 0.1 μg/mL): 23 ± 0.03%
- mean percentage of viable cells ± SD ([4]; 0.5 μg/mL): 19 ± 0.03%
- mean percentage of viable cells ± SD ([4]; 5 μg/mL): 14 ± 0.03%
- mean percentage of viable cells ± SD ([4]; 10 μg/mL): 7 ± 0.06%
- mean percentage of viable cells ± SD ([4]; 20 μg/mL): 4 ± 0.02%
- mean percentage of viable cells ± SD ([4]; 50 μg/mL): 1 ± 0.15%
